According to US20150322033A1, “ANTIBACTERIAL AGENT” (priority 2012, published 2015):
Converted amounts (≈) assume the structure as drawn.

What was measured:
S. aureus MS5935-1 = assay: MIC for S. aureus MS5935-1; format: cell-based; conditions: Staphylococcus aureus, MS59351
Experimental: (§1) The levofloxacin-susceptible Staphylococcus aureus strain MS5935-1 (strain in which the 80th serine residue from the amino terminus of the wild-type topoisomerase IV encoded by parC is mutated with phenylalanine residue, see, Hiramatsu K., Igarashi M., Morimoto Y, Baba T., Umekita M., Akamatsu Y., Int. J. Antimicrob. Agents, 2012 June; 39(6), 478-85) was cultured overnight at 37° C. with shaking in 4 mL of TBS (produced by Dickinson). After completion of the culture, the cells were suspended in fresh TBS, and the cell suspension was adjusted to have an absorbance of 0.3 measured at 578 nm. Then, the cell suspension was diluted 10,000 times with TBS. This diluted cell suspension was inoculated (0.1 mL each) into ten test tubes containing 4 mL each of TBS, and preculture was carried out overnight at 37° C.

[1] = test system: levofloxacin-susceptible Staphylococcus aureus strain MS5935-1; assay: Emergence frequency of levofloxacin-resistant Staphylococcus aureus on agar plate medium; format: cell-based; conditions: for Emergence frequency of levofloxacin resistance mutation (mutations/genera): FALCOR
Excerpt: Emergence frequency of levofloxacin-resistant Staphylococcus aureus was examined in the presence or absence of apigenin by using a levofloxacin-susceptible Staphylococcus aureus strain according to the following method.
as §1
Levofloxacin was dissolved in sterilized water at a concentration of 40 mg/L. This solution of levofloxacin was added on plates in a volume of 1 mL/plate, and 9 mL of M-H (Mueller Hinton) Agar (produced by Becton, Dickinson and Company) was added to each plate. Five of such plates were prepared. […]
Number of the colonies formed on each agar plate medium after the culture of 2 days was counted. The emergence frequency of levofloxacin-resistant Staphylococcus aureus was calculated according to the following equation using the number of colonies and the number of bacterial cells inoculated onto each agar plate medium (CFU, colony forming unit). Further, from the calculated emergence frequency of the levofloxacin-resistant Staphylococcus aureus, emergence frequency of levofloxacin resistance mutation and 95% confidence interval (CI range) were calculated by using FALCOR (Fluctuation AnaLysis CalculatOR, http://www.keshaysingh.org/protocols/FALCOR.html, see, Hall B. M. et al., Bioinformatics., 2009, 25(12), 1564-5). […]

Compound	MIC (S. aureus MS5935-1) [µg/mL]	Emergence frequency of levofloxacin resistance mutation (mutations/genera) ([1]; agar plate medium with LVFX 4 mg/L, apigenin 0)	Emergence frequency of levofloxacin resistance mutation, medium with levofloxacin and apigenin / medium with levofloxacin ([1]; LVFX 4 mg/L, apigenin 32 mg/L)	Emergence frequency of levofloxacin resistance mutation (mutations/genera) ([1]; agar plate medium with LVFX 4 mg/L and apigenin 32 mg/L)
C[C@H]1COc2c(N3CCN(C)CC3)c(F)cc3c(=O)c(C(=O)O)cn1c23 [Levofloxacin, levofloxacin, reference compound]	0.5 (≈ 1.38 µM)	1.45 × 10^−9 mutations/genera	–	–
O=c1cc(-c2ccc(O)cc2)oc2cc(O)cc(O)c12 [No. 7, 4′,5,7-Trihydroxyflavone]	> 128	–	1/29	0.05 × 10^−9 mutations/genera
